From US20120172453A1, “METHODS FOR TREATING NEURODEGENERATIVE DISEASES” (Coyote Pharmaceuticals, Inc., priority 2010, published 2012)

Key:
[1] = tested on: Rat primary motor neurons; assay: axon extension of rat primary motor neurons; format: cell-based; settings: Neuron, cells extending axons counted after 72 hrs, values in parenthesis, read-out: reasonable range expected for the EC50
Description: Rat primary motor neurons were isolated from embryonic spinal cords in accordance with the method of Henderson et al.; J Cohen and G P Wilkin (ed.), Neural Cell Culture, (1995) p69-81 which is herein incorporated by reference in its entirety. Briefly, spinal cords were dissected from day 15 embryo (E15) and incubated in a trypsin solution, and followed by DNase treatment to release spinal cord cells from tissue fragments. The cell suspension was centrifuged to remove tissue fragments. Then motor neurons were enriched by density gradient centrifugation.
Motor neurons were cultured in serum-free neurobasal medium containing insulin, forskolin, 3-isobutyl-1-methylxanthine, neurotrophic factors, Bovine serum albumin, selenium, transferrin, putrescine, progesterone and B27 supplement in tissue culture plate coated with poly-ornithine and laminin.
Rat primary motor neurons were prepared and cultured as described Example 11. […] The cells extending axons were counted in five different fields for each treatment after 72 hrs. Percentage of positive cells relative to total cells in the same magnification field was calculated and the results were expressed as means+/− standard deviations, n=5.

[2] = tested on: Mouse Neuro2A neuroblastoma cells; assay: Neuro2A cells with neurites counted after retinoic acid differentiation and GGTI-298; format: cell-based
Description: Mouse Neuro2A neuroblastoma cells were cultured in DMEM supplemented with 10% FBS for 24 hrs. […] Then differentiation was induced by retinoic acid in DMEM supplemented with 2% FBS. An inhibitor against a G-protein, GGTI-298, was incubated. After 24 hrs incubation, cells with neurites were counted.

EC50 [1]	Structure (SMILES)	effect of a large quantity on viability of neuroblastoma cells [2]
0.5 to 2 nM	CC(=O)CC/C=C(\C)CC/C=C(\C)CC/C=C(\C)CCC=C(C)C [CNS-102, 5E,9E,13E-Geranylgeranyl acetone]	
8 to 12 nM	CC(=O)CC/C=C(/C)CC/C=C(\C)CC/C=C(\C)CCC=C(C)C [CNS-103, 5Z,9E,13E-Geranylgeranyl acetone]	inhibited viability of neuroblastoma cells
